Source: US9265755B2, “Stem cell administration to reduce TNF-α level in CSF of an autism spectrum disorder or pervasive development disorder patient” (priority 2009, dated 2016)
Entries after “also recorded” stand apart in the source; their conditions may differ.

Legend:
[1] = test system: TNF-α; experiment: TNF-α levels in CSF and serum of autism spectrum patients treated with lenalinomide; format: in vivo, human
[2] = test system: patients diagnosed with an autism spectrum condition; experiment: Clinical language, social skills, CARS and EEG outcome in the lenalinomide study; format: in vivo, human
[3] = test system: autism spectrum subjects; experiment: Clinical improvement with lenalidomide outside of the study; format: in vivo, human; conditions: 2.5 to 10 mg; four subjects outside of the study
[4] = test system: Interleukin-1β; experiment: Serum Interleukin-1β levels with lenalidomide outside of the study; format: in vivo, human; conditions: 2.5 to 10 mg; 2 subjects; 12 to 24 weeks of therapy
[5] = test system: test subjects with autism spectrum condition; experiment: L-Carnosine in test subjects with autism spectrum condition (language, CARS); format: in vivo, human
[6] = test system: patient with co-morbid autism condition and inflammatory colitis; experiment: Co-morbid autism condition in a single patient treated with infliximab; format: in vivo, human; conditions: in just days of treatment
Text: This patient regressed and became autistic […] with the onset of their inflammatory colitis condition becoming clinically obvious at a later date.

[7] = test system: patients with autistic regression and abnormal EEG; experiment: Thalidomide in patients with autistic regression and abnormal EEG
[8] = 2.5 mg per day, in 6 to 12 weeks, four patients with TNF-α CSF elevation over serum levels
[9] = after 4 to 12 weeks off the medication
[10] = 25 to 50 mg per day for 2 to 4 months, six patients

Nc1cccc2c1CN(C1CCC(=O)NC1=O)C2=O (stereo not shown) [Lenalinomide]
levels of TNF-α in CSF [1, 8]: lowered levels | levels of TNF-α in serum [1, 8]: lowered levels | TNF-α levels in serum after withdrawal of the medication [1, 9]: increased | CSF and serum ratios of TNF-α and other inflammatory cytokines ([1]; when TNF-α is elevated in an inflammatory response): lowering | EEG in patients with abnormal EEG ([2]; 2.5 mg per day): showed improvement; also recorded: may have improved | patients with elevated TNF-α levels in CSF and serum improved over baseline clinically ([2]; 2.5 mg per day (4/6 of completed study)): four out of four | CGI rating scale for language expression ([2]; 2.5 mg per day, FIG. 2a): Improvement | CGI rating scale for receptive language ([2]; 2.5 mg per day, FIG. 2b): Improvement | CGI rating scale for social skills ([2]; 2.5 mg per day, FIG. 3): Improvement | neuropsychological testing, receptive one-word test ([2]; 2.5 mg per day, FIG. 4a): Improvement | neuropsychological testing, expressive one-word test ([2]; 2.5 mg per day, FIG. 4b): Improvement | Childhood Autism Rating Scale Scores (CARS) ([2]; 2.5 mg per day, four patients): improved | language skills ([2]; 2.5 mg per day, four patients): improved | social skills ([2]; 2.5 mg per day, four patients): improved | skills after withdrawal of the medication [2, 9]: regressed | clinical state when medication was re-introduced ([2]; re-introduced at 2.5 to 5 mg per day, three patients): improved | clinical improvement [3]: great clinical improvement | Interleukin-1β levels in serum [4]: lower

NCCC(=O)N[C@@H](Cc1cnc[nH]1)C(=O)O [L-Carnosine]
language function, receptive one word vocabulary testing scores ([5]; 800 mg per day, after 6 and 12 weeks of treatment, compared to placebo): improvement | CARS scores ([5]; 800 to 1000 mg, over 8 weeks): CARS scores improvement | language ([5]; 800 to 1000 mg, over 8 weeks): language improvement

Infliximab
co-morbid autism condition [6]: improvement

O=C1CCC(N2C(=O)c3ccccc3C2=O)C(=O)N1 (stereo not shown) [Thalidomide]
EEG [7, 10]: improved | clinical global improvement [7, 10]: clinical global improvement occurred | clinical state of patients with autistic regression and abnormal EEG ([7]; patients who previously showed immune partial response to oral or injectable corticosteroids): improvement
